According to article PMC4503722, “Novel Phenotypic Outcomes Identified for a Public Collection of Approved Drugs from a Publicly Accessible Panel of Assays” (PLoS ONE, 2015):
pIC50: −log10 of the molar value.

How the values were obtained:
Test in all cases: cells
Type in all cases: cell-based
DLD-1 = settings: for Basal_Viability ATP DLD-1 IC50/EC50 / pIC50: assay number 23; for pIC50: read-out: Basal_Viability ATP DLD-1 summarized IC50
SW480 = settings: for Basal_Viability ATP SW480 IC50/EC50 / pIC50: assay number 24; for pIC50: read-out: Basal_Viability ATP SW480 summarized IC50
HCT116 = settings: basal; for Basal_Viability ATP HCT116 IC50/EC50 / pIC50: assay number 25; for pIC50: read-out: Basal_Viability ATP HCT116 summarized IC50
[1] = test system: HCT116 cells treated with a GSK3β inhibitor; settings: for GSK3b inh pretreated_Viability ATP HCT116 IC50/EC50 / pIC50: assay number 26, GSK3b inhibitor pretreated; for IC50/EC50, GSK3b inh pretreated_Viability ATP HCT116 (assay number 26): GSK3b inh pretreated; for pIC50: read-out: GSK3b inh pretreated_Viability ATP HCT116 summarized IC50
Colo320 = settings: for Basal_Viability ATP Colo 320 IC50/EC50 / pIC50: assay number 27; for pIC50: read-out: Basal_Viability ATP Colo 320 summarized IC50
HT-29 = settings: for Basal_Viability ATP HT-29 IC50/EC50 / pIC50: assay number 28; for pIC50: read-out: Basal_Viability ATP HT-29 summarized IC50
RKO = settings: for Basal_Viability ATP RKO IC50/EC50 / pIC50: assay number 29; for pIC50: read-out: Basal_Viability ATP RKO summarized IC50
SNU-C1 = settings: for Basal_Viability ATP SNU-C1 IC50/EC50 / pIC50: assay number 30; for pIC50: read-out: Basal_Viability ATP SNU-C1 summarized IC50
HeLa cells = test system: HeLa cells

SMILES: COc1ccc(CN2CCN(C(c3ccc(F)cc3)c3ccc(F)cc3)CC2)c(OC)c1OC.Cl.Cl [NCGC00164543-02]
- Basal_Viability ATP DLD-1 IC50/EC50 (DLD-1): 3.1331 µM
- Basal_Viability ATP SW480 IC50/EC50 (SW480): 3.3247 µM
- Basal_Viability ATP HCT116 IC50/EC50 (HCT116): 1.7018 µM
- GSK3b inh pretreated_Viability ATP HCT116 IC50/EC50 [1]: 2.7677 µM
- Basal_Viability ATP Colo 320 IC50/EC50 (Colo320): 2.817 µM
- Basal_Viability ATP HT-29 IC50/EC50 (HT-29): 2.926 µM
- Basal_Viability ATP RKO IC50/EC50 (RKO): 3.6952 µM
- Basal_Viability ATP SNU-C1 IC50/EC50 (SNU-C1): 0.4428 µM

SMILES: CCC(COC(=O)c1cc(OC)c(OC)c(OC)c1)(c1ccccc1)N(C)C.O=C(O)/C=C\C(=O)O (centres unmarked) [NCGC00018269-05]
- Hela CellCycMod PI 2N IC50/EC50 (HeLa cells; assay number 14, 2N): > 10 µM
- Hela CellCycMod PI S Phase IC50/EC50 (HeLa cells; assay number 15, S phase): > 10 µM
- Hela CellCycMod PI 4N IC50/EC50 (HeLa cells; assay number 16, 4N): > 10 µM
- Hela CellCycMod PI MI IC50/EC50 (HeLa cells; assay number 17, MI): > 10 µM
- Hela CellCycMod PI Cell Number IC50/EC50 (HeLa cells; assay number 18, cell number): > 10 µM
- Basal_Viability ATP DLD-1 IC50/EC50 (DLD-1; basal): > 20 µM
- Basal_Viability ATP SW480 IC50/EC50 (SW480; basal): > 20 µM
- Basal_Viability ATP HCT116 IC50/EC50 (HCT116): > 20 µM
- GSK3b inh pretreated_Viability ATP HCT116 IC50/EC50 [1]: 1.615 µM
- Basal_Viability ATP Colo 320 IC50/EC50 (Colo320; basal): > 20 µM
- Basal_Viability ATP HT-29 IC50/EC50 (HT-29; basal): > 20 µM
- Basal_Viability ATP RKO IC50/EC50 (RKO; basal): 0.1424 µM
- Basal_Viability ATP SNU-C1 IC50/EC50 (SNU-C1; basal): 2.4514 µM

SMILES: CCN1/C(=C/C=C/c2sc3ccccc3[n+]2CC)Sc2ccccc21.[I-] [NCGC00166288-02]
- IC50/EC50, Hela CellCycMod PI 2N (assay number 14) (HeLa cells; 2N): 8.506 µM
- IC50/EC50, Hela CellCycMod PI 4N (assay number 16) (HeLa cells; 4N): > 10 µM
- IC50/EC50, Hela CellCycMod PI Cell Number (assay number 18) (HeLa cells; Cell Number): 0.03604 µM
- IC50/EC50, Hela CellCycMod PI MI (assay number 17) (HeLa cells; MI): 4.476 µM
- IC50/EC50, Hela CellCycMod PI S Phase (assay number 15) (HeLa cells; S Phase): > 10 µM
- IC50/EC50, Basal_Viability ATP DLD-1 (assay number 23) (DLD-1; basal): 0.0148 µM
- IC50/EC50, Basal_Viability ATP SW480 (assay number 24) (SW480; basal): 0.172 µM
- IC50/EC50, Basal_Viability ATP HCT116 (assay number 25) (HCT116): 0.00957 µM
- IC50/EC50, GSK3b inh pretreated_Viability ATP HCT116 (assay number 26) [1]: 0.00875 µM
- IC50/EC50, Basal_Viability ATP Colo 320 (assay number 27) (Colo320; basal): 0.562 µM
- IC50/EC50, Basal_Viability ATP HT-29 (assay number 28) (HT-29; basal): 0.00838 µM
- IC50/EC50, Basal_Viability ATP RKO (assay number 29) (RKO; basal): 0.00898 µM
- IC50/EC50, Basal_Viability ATP SNU-C1 (assay number 30) (SNU-C1; basal): 0.01721 µM

SMILES: N#CC(C#N)=Cc1ccc(O)c(O)c1 [NCGC00016043-08]
- IC50/EC50, Basal_Viability ATP DLD-1 (assay number 23) (DLD-1; basal): > 20 µM
- IC50/EC50, Basal_Viability ATP SW480 (assay number 24) (SW480; basal): > 20 µM
- IC50/EC50, Basal_Viability ATP HCT116 (assay number 25) (HCT116): > 20 µM
- IC50/EC50, GSK3b inh pretreated_Viability ATP HCT116 (assay number 26) [1]: > 20 µM
- IC50/EC50, Basal_Viability ATP Colo 320 (assay number 27) (Colo320; basal): 6.7406 µM
- IC50/EC50, Basal_Viability ATP HT-29 (assay number 28) (HT-29; basal): > 20 µM
- IC50/EC50, Basal_Viability ATP RKO (assay number 29) (RKO; basal): 3.7756 µM
- IC50/EC50, Basal_Viability ATP SNU-C1 (assay number 30) (SNU-C1; basal): > 20 µM

SMILES: CCCCCCCCCCCCCCCCC(C(=O)O)C(O)(CC(=O)O)C(=O)O (centres unmarked) [NCGC00167547-02]
- Basal_Viability ATP DLD-1 IC50/EC50 (DLD-1; basal): 4.2832 µM
- Basal_Viability ATP SW480 IC50/EC50 (SW480; basal): 1.1952 µM
- Basal_Viability ATP HCT116 IC50/EC50 (HCT116): 8.6847 µM
- GSK3b inh pretreated_Viability ATP HCT116 IC50/EC50 [1]: 4.3382 µM
- Basal_Viability ATP Colo 320 IC50/EC50 (Colo320; basal): 1.3621 µM
- Basal_Viability ATP HT-29 IC50/EC50 (HT-29; basal): 4.0996 µM
- Basal_Viability ATP RKO IC50/EC50 (RKO; basal): 3.4822 µM
- Basal_Viability ATP SNU-C1 IC50/EC50 (SNU-C1; basal): 1.3613 µM

SMILES: Cc1cc2nc3c(=O)[nH]c(=O)nc-3n(C[C@H](O)[C@H](O)[C@H](O)COP(=O)([O-])OP(=O)([O-])OC[C@H]3O[C@@H](n4cnc5c(N)ncnc54)[C@H](O)[C@H]3O)c2cc1C.O.[Na+].[Na+] [NCGC00344578-01]
- Basal_Viability ATP DLD-1 IC50/EC50 (DLD-1; basal): > 20 µM
- Basal_Viability ATP SW480 IC50/EC50 (SW480; basal): > 20 µM
- Basal_Viability ATP HCT116 IC50/EC50 (HCT116): > 20 µM
- GSK3b inh pretreated_Viability ATP HCT116 IC50/EC50 [1]: > 20 µM
- Basal_Viability ATP Colo 320 IC50/EC50 (Colo320; basal): > 20 µM
- Basal_Viability ATP HT-29 IC50/EC50 (HT-29; basal): > 20 µM
- Basal_Viability ATP RKO IC50/EC50 (RKO; basal): > 20 µM
- Basal_Viability ATP SNU-C1 IC50/EC50 (SNU-C1; basal): > 20 µM

SMILES: O=C(Nc1ccc(Cl)cc1)Nc1ccc(Cl)c(C(F)(F)F)c1 [NCGC00185743-02]
- pIC50 (DLD-1; basal): 7.57
- pIC50 (SW480; basal): 8.05
- pIC50 (HCT116): 8.52
- pIC50 [1]: 8.52
- pIC50 (Colo320; basal): 8.52
- pIC50 (HT-29; basal): 9.00
- pIC50 (RKO; basal): 8.52
- pIC50 (SNU-C1; basal): 8.05

SMILES: Cc1nnc(NS(=O)(=O)c2ccc(N)cc2)s1 [NCGC00016407-08]
- pIC50 (DLD-1; basal): < 4.70
- pIC50 (SW480; basal): < 4.70
- pIC50 (HCT116): < 4.70
- pIC50 [1]: < 4.70
- pIC50 (Colo320; basal): < 4.70
- pIC50 (HT-29; basal): < 4.70
- pIC50 (RKO; basal): < 4.70
- pIC50 (SNU-C1; basal): < 4.70
